We go through twelve molecules from publication PMC8983078 (Drug Discovery Today, 2022).

Counter-ions that a name gives are not always drawn. Like-named read-outs stand apart in the source and are kept apart here.

The target in data set [1] is T1, hERG channel (Homo sapiens, UniProt Q12809).
The next data set concerns phospholipidosis (PLD). As to conditions: read-out: PLD EC50; NPC qHTS in-house database; cited from earlier work. (In general: In qHTS, concentration-response curves come from the screen itself.)
In a further data set the test system is SARS-CoV-1. As to conditions: cited from earlier work.
The conditions of data set [2]: cited from earlier work.
Data set [3] has as its system Middle East respiratory syndrome (MERS)-CoV. As to conditions: cited from earlier work.
Data set [4] addresses T1, hERG channel. As to conditions: cited from earlier work.
A further data set relates to SARS-CoV-2. As to conditions: cited from earlier work; for SARS-CoV-2 CPE EC50: Vero E6 cells infected for 72 h, NPC qHTS in-house database.
In the next data set the test system is autophagy. As to conditions: in words; screening data; cited from earlier work.
Another data set has as its system COVID-19. As to conditions: patients hospitalized with COVID-19, observational; cited from earlier work.
Where [5] appears, read: tier stated per drug in the text, based on hERG curve rank.

In general, EC50 refers to the concentration giving half of the maximal effect. As a reminder, the IC50 is the concentration needed to halve the response being measured.

T1 sequence (Q12809 whole entry): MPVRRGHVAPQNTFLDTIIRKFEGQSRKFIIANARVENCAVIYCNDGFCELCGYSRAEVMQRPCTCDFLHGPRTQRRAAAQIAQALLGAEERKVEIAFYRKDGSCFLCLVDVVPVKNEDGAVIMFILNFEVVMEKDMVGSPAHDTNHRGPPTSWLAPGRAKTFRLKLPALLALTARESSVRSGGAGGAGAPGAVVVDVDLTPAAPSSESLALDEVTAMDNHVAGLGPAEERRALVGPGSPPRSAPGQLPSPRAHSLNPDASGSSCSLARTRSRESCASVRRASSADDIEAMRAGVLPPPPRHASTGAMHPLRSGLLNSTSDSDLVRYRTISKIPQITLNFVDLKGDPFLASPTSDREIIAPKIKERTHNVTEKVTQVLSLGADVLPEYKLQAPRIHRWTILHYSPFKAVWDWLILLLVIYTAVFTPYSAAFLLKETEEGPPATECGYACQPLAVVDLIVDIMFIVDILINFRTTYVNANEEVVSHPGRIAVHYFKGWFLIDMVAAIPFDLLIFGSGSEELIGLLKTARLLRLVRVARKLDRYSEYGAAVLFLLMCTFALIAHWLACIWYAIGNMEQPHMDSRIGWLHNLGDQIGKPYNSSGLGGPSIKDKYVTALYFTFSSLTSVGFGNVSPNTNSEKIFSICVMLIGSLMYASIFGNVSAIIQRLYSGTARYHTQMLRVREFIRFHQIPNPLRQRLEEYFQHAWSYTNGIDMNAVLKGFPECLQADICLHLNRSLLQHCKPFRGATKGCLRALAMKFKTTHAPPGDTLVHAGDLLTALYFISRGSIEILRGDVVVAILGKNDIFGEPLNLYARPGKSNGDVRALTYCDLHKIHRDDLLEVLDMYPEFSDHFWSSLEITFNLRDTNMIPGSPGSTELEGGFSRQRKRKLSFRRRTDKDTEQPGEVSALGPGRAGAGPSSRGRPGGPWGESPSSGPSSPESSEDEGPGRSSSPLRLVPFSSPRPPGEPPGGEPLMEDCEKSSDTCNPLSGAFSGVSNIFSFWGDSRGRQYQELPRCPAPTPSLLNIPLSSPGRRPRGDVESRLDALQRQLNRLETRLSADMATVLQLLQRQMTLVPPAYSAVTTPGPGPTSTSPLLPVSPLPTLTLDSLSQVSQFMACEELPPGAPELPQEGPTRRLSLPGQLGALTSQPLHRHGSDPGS

In the case of `CN(C)CCCN1c2ccccc2Sc2ccc(Cl)cc21` [Chlorpromazine], the hERG liability entry on hERG channel [1] (setting [5]) is on record as “high (high (curve rank > 4.0))”. The EC50 in the data set on phospholipidosis (PLD) was 10 µM. Further, the “viral replication of SARS-CoV-1” value with SARS-CoV-1 is “inhibit in vitro viral replication”. Moreover, the TdP risks result in data set [2] (in vivo) is recorded as “known TdP risks”. Moreover, in data set [3], the “viral replication of MERS-CoV” value is reported as “inhibit in vitro viral replication”.
As for `CN1CCCCC1CCN1c2ccccc2Sc2ccc([S+](C)[O-])cc21` (stereo not drawn) [mesoridazine], the hERG liability result at hERG channel [1] is “high (key: low (curve rank < 1.0); medium (curve rank between 1.0 and 4.0); high (curve rank > 4.0))”. In data set [2] (in vivo), the TdP risks result was “known TdP risks”.
On to `CC[C@H]1OC(=O)[C@H](C)[C@@H](O[C@H]2C[C@@](C)(OC)[C@@H](O)[C@H](C)O2)[C@H](C)[C@@H](O[C@@H]2O[C@H](C)C[C@H](N(C)C)[C@H]2O)[C@](C)(O)C[C@@H](C)CN(C)[C@H](C)[C@@H](O)[C@]1(C)O` [Azithromycin], for which the “hERG IC50” value at hERG channel [4] (NPC qHTS in-house database) is recorded as “Inactive”. The hERG inhibition entry on hERG channel [4] (in words, screening data) is listed as “no hERG inhibition”.
Turning to `CCN(CC)CCCC(C)Nc1ccnc2cc(Cl)ccc12` (stereo not drawn) [Chloroquine], in the data set with phospholipidosis (PLD), the EC50 was 11 µM.
Regarding `COc1ccc(CCN2CCC(Nc3nc4ccccc4n3Cc3ccc(F)cc3)CC2)cc1` [Astemizole], the TdP risks result in [2] is listed as “known TdP risks”. In data set [2] (in vivo), the arrhythmias entry was “fatal arrythmias”.
Take `O=C(CCCN1CCC(O)(c2ccc(Cl)cc2)CC1)c1ccc(F)cc1` [haloperidol]: the hERG liability entry on hERG channel [1] is “high (key: low (curve rank < 1.0); medium (curve rank between 1.0 and 4.0); high (curve rank > 4.0))”.
Regarding `CC[C@@H](C)[C@H]1O[C@]2(CC[C@@H]1C)C[C@@H]1C[C@@H](C/C=C(\C)[C@@H](O[C@H]3C[C@H](OC)[C@@H](O[C@H]4C[C@H](OC)[C@@H](O)[C@H](C)O4)[C@H](C)O3)[C@@H](C)/C=C/C=C3\CO[C@@H]4[C@H](O)C(C)=C[C@@H](C(=O)O1)[C@]34O)O2` [Ivermectin], on hERG channel [1] (setting [5]), the hERG liability entry is given as “moderate”. The EC50 in the data set on phospholipidosis (PLD) was 17 µM. In addition, the IC50 on hERG channel [4] (read-out: hERG IC50, NPC qHTS in-house database) was 9.7 µM.
On to `CCN(CCO)CCCC(C)Nc1ccnc2cc(Cl)ccc12` (stereo not drawn) [Hydroxychloroquine sulfate], for which the “hERG IC50” value on hERG channel [4] (NPC qHTS in-house database) is on record as “Inactive”. Moreover, the “SARS-CoV-2 CPE EC50” value in the data set on SARS-CoV-2 is on record as “Inactive”.
As for `O=C(Nc1ccc([N+](=O)[O-])cc1Cl)c1cc(Cl)ccc1O` [Niclosamide], the “activity in the autophagy assay” value with autophagy is on record as “moderate activity”. In addition, the EC50 in the data set with phospholipidosis (PLD) is 1 µM. Moreover, the “hERG IC50” value at hERG channel [4] (NPC qHTS in-house database) is “Inactive”.
`NC(=O)c1nc(F)c[nH]c1=O` [Favipiravir]: the “SARS-CoV-2 CPE EC50” value in the data set with SARS-CoV-2 is “Inactive”.
Take `CC(=O)Oc1ccccc1C(=O)Nc1ncc([N+](=O)[O-])s1` [Nitazoxanide]: the “activity in the autophagy assay” value in the data set on autophagy is reported as “no activity”. For the same molecule, at hERG channel [4] (NPC qHTS in-house database), the “hERG IC50” value was “Inactive”. Moreover, the “activity in the CPE assay” value in the data set on SARS-CoV-2 (in words, screening data) was “moderate activity”.
As for `NC(N)=Nc1nc(CSCCC(N)=NS(N)(=O)=O)cs1` [Famotidine], in the data set with COVID-19, the clinical outcomes is “improved clinical outcomes”. In addition, the “SARS-CoV-2 CPE EC50” value in the data set on SARS-CoV-2 is “Inactive”.
